Like-named read-outs stand apart in the source and are kept apart here.
What was measured:
[1] = target: T1, RORγ ligand binding domain (LBD) (Homo sapiens, UniProt P51449); experiment: TR-FRET Activity Assay (ligand sensing, RORγ-LBD / coactivator peptide interaction, LANCE); format: biochemical
T1 construct: made in house; host or cells: E. coli BL-21 (BL3), vector pDEST15
T1 sequence (P51449 269-508 limits assumed): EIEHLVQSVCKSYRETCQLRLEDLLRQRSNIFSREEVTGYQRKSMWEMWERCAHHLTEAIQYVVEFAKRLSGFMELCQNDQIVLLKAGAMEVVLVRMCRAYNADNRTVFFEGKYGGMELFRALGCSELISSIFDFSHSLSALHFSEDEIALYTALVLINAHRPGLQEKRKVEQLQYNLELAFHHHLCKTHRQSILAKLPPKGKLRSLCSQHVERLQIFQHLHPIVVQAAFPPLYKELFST

[2] = target: T2, RORγ (UniProt P51449); experiment: RORγ Gal4 Reporter Gene Assay in 293T cells (firefly and renilla luciferase); format: cell-based, human
T2 sequence (P51449 1-518): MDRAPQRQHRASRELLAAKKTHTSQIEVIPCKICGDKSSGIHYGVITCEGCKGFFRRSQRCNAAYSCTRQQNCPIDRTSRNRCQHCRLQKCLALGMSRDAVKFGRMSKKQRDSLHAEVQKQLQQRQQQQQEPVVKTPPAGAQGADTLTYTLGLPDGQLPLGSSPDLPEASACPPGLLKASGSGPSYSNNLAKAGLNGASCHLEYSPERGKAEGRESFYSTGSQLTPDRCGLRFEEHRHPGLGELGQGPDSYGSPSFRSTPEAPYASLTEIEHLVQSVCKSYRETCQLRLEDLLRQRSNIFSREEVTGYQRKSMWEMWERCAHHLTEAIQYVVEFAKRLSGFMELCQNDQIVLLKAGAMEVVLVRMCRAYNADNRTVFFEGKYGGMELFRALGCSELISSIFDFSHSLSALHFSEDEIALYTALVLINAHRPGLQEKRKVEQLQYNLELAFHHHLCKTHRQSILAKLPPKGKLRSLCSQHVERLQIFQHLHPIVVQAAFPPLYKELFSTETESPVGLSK

[3] = first value of the cell FRET/FF/REN, TR-FRET activity assay, read-out: pIC50 (FRET) (converted)
[4] = second value of the cell, Gal4 reporter gene assay in 293T cells, firefly luciferase
[5] = third value of the cell, Gal4 reporter gene assay in 293T cells, renilla normalised luciferase

Row | Structure (SMILES) | IC50 [1, 3] | pIC50 (FF) [2, 4] | pIC50 (REN) [2, 5] | IC50 [1] | pIC50 (FF) [2] | pIC50 (REN) [2]
1 | CCC(C)(C)NS(=O)(=O)c1ccc(-c2cc(C(=O)NCC(C)(C)O)c(C)n2CC2CCCCC2)cc1C(C)(C)C [9/11] | 501 nM | 7.7 | 7.8 | – | – | –
2 | Cc1c(C(=O)NC2CCOCC2)cc(C2=NN(S(=O)(=O)c3ccccc3)C3(CCCCC3)C2)n1CC1CCCCC1 [24/1] | 12600 nM | 6.3 | 6.4 | – | – | –
3 | Cc1c(C(N)=O)cc(-c2ccc(C(O)(C(F)(F)F)C(F)(F)F)cc2)n1CC1CCCCC1 [1/45] | 1000 nM | 5.6 | 5.8 | – | – | –
4 | Cc1c(C(=O)NC2CCOCC2)cc(-c2ccc(S(=O)(=O)NCC(F)(F)F)c(C(C)(C)C)c2)n1CC1CCCCC1 [17/101] | 794 nM | 7.7 | 7.7 | – | – | –
5 | Cc1c(-c2cc(C(=O)N[C@H]3C[C@H](C(=O)O)C3)c(C)n2CC2CCCCC2)ccc(S(=O)(=O)NC(C)(C)C)c1C [17/272] | 501 nM | 6.8 | 6.9 | – | – | –
6 | Cc1c(C(=O)NN2CCOCC2)cc(-c2cc(C(C)(C)C)c3c(c2)C2(CCO3)CC2)n1CC1CCCCC1 [17/9] | – | – | – | 631 nM | 6.2/6.8/6.8 | 6.2/6.8/6.8
7 | COC(C)(C)c1cc(-c2cc(C(=O)NC3CCOCC3)c(C)n2CC2CCCCC2)cc(C(C)NC(C)C)c1 (stereo not drawn) [17/303] | 3980 nM | 6.3 | 6.4 | – | – | –
8 | Cc1c(C(=O)NC2CCOCC2)cc(-c2ccc(S(=O)(=O)NC(C)(C)C)c(C(F)(F)F)c2)n1CC1CCCC(C(F)(F)F)C1 (stereo not drawn) [17/87] | – | – | – | 501 nM | 6.3/6.9/6.9 | 6.3/6.9/6.9
9 | Cc1c(C(=O)NCCCO)cc(-c2cc(C(C)(C)C)cc(C(C)(C)C)c2)n1CC1CCCCC1 [1/65] | 398 nM | 6.6 | 6.6 | – | – | –
10 | Cc1c(C(=O)NCCC(C)(C)C(=O)O)cc(-c2ccc(S(=O)(=O)NC(C)(C)C)c(C(C)(C)C)c2)n1CC1CCCCC1 [17/163] | 1580 nM | 7.0 | 7.2 | – | – | –
11 | Cc1c(C(=O)N[C@H]2C[C@H](C(=O)O)C2)cc(-c2cc(C3(C)CC3)nc(C(C)(C)C)n2)n1CC1CCCCC1 [17/311] | 794 nM | 7.0 | 7.2 | – | – | –
12 | Cc1c(C(=O)NC2CCOCC2)cc(-c2ccc(S(=O)(=O)NC(C)(C)C)c(F)c2)n1CC1CCCCC1 [17/238] | 1000 nM | 6.9 | 6.7 | – | – | –
13 | Cc1c(C(=O)N[C@H]2CCOC2)cc(-c2cc(C(C)(C)C)c3c(c2)C2(CCO3)CC2)n1CC1CCCCC1 [1/95] | 158 nM | 7.0 | 7.1 | – | – | –
14 | CCn1cc(-c2ccc(-c3cc(C(=O)NC4CCOCC4)c(C)n3CC3CCCCC3)cc2C(C)(C)C)cn1 [26/3] | 794 nM | 6.6 | 6.8 | – | – | –
15 | CNC(=O)C(C)(C)CCNC(=O)c1cc(-c2ccc(S(=O)(=O)NC(C)(C)C)c(C(F)(F)F)c2)n(CC2CCCCC2)c1C [17/136] | 794 nM | 6.6 | 6.7 | – | – | –
16 | Cc1c(C(=O)NCCCCC(=O)O)cc(-c2cc(C(C)(C)C)cc(C(C)(C)C)c2)n1CC1CCCCC1 [1/73] | 1260 nM | 7.2 | 7.2 | – | – | –
17 | Cc1c(C(=O)NC[C@@H](C)O)cc(-c2cc(C(C)(C)C)cc(C(C)(C)C)c2)n1CC1CCCCC1 [1/59] | 631 nM | 6.3 | 6.3 | – | – | –
18 | Cc1c(C(=O)NC2CCOCC2)cc(-c2cc(Cl)cc(C(=O)NC(C)(C)C)c2)n1CC1CCCCC1 [17/219] | 501 nM | 6.9 | 7.0 | – | – | –
19 | CCC(C)(C)NS(=O)(=O)c1ccc(-c2cc(C(=O)N[C@H]3C[C@H](C(=O)O)C3)c(C)n2CC2CCCCC2)c(Cl)c1C [17/197] | 794 nM | 7.9 | 7.7 | – | – | –
20 | Cc1c(C(=O)NC2CCOCC2)cc(-c2cc(Cl)c(S(=O)(=O)NC(C)(C)C)c(Cl)c2)n1CC1CCCCC1 [17/235] | 200 nM | 7.6 | 7.6 | – | – | –
21 | CCC(C)(C)NS(=O)(=O)c1ccc(-c2cc(C(=O)NC3CCOCC3)c(C)n2CC2CCCC2)cc1C(F)(F)F [17/216] | 200 nM | 7.8 | 7.8 | – | – | –

Row | Structure (SMILES) | IC50 [1, 3] | pIC50 (FF) [2, 4] | pIC50 (REN) [2, 5] | IC50 [1] | pIC50 (FF) [2] | pIC50 (REN) [2]
22 | Cc1c(C(=O)NCC(C)(C)O)cc(-c2cc(C(=O)NC(C)C)cc(C(C)(C)C)c2)n1CC1CCCCC1 [15/9] | 1000 nM | 6.9 | 7.0 | – | – | –
23 | Cc1c(C(=O)NC2CNC(=O)C23CCOCC3)cc(-c2ccc(S(=O)(=O)NC(C)(C)C)c(C(F)(F)F)c2)n1CC1CCCCC1 (stereo not drawn) [17/295] | 1000 nM | 6.6 | 6.5 | – | – | –
24 | Cc1n[nH]cc1-c1ccc(-c2cc(C(=O)NC3CCOCC3)c(C)n2CC2CCCCC2)cc1C(C)(C)C [26/1] | – | – | – | 251 nM | 6.6/7.4/7.5 | 6.6/7.4/7.5
25 | Cc1c(C(=O)NC2CCOCC2)cc(-c2ccc(S(=O)(=O)NC(C)(C)C)c(OCC(C)(C)C)c2)n1CC1CCCCC1 [17/165] | – | – | – | 5010 nM | 5.3/6.5/6.9 | 5.3/6.5/6.9
26 | Cc1c(C(=O)NCC2(C(=O)O)CCOCC2)cc(-c2cc(C(C)(C)C)c3c(c2)C2(CCO3)CC2)n1CC1CCCCC1 [17/40] | 1260 nM | 6.9 | 6.8 | – | – | –
27 | Cc1c(C(N)=O)cc(-c2ccc(S(=O)(=O)NC(C)(C)C)c(C(C)(C)C)c2)n1CC1CCCCC1 [1/13] | 1260 nM | 6.2 | 6.1 | – | – | –
28 | Cc1c(C(=O)NC2CCOCC2)cc(-c2cc3c(c(C(C)(C)C)c2)OCCC3O)n1CC1CCCCC1 (stereo not drawn) [17/105] | 2000 nM | 6.1 | 6.3 | – | – | –
29 | Cc1cc(-c2cc(C(=O)NC3CCOCC3)c(C)n2CC2CCCCC2)cc(C(F)(F)F)c1S(=O)(=O)NC(C)(C)C [17/232] | – | – | – | 794 nM | 6.1/6.8/7.0 | 6.1/6.8/7.0
30 | Cc1c(C(=O)NCC2(O)CCS(=O)(=O)CC2)cc(-c2cc(C(C)(C)C)c3c(c2)C2(CCO3)CC2)n1CC1CCCCC1 [17/81] | – | – | – | 631 nM | 6.2/7.1/7.1 | 6.2/7.1/7.1
31 | CC(C)(C)NS(=O)(=O)c1ccc(-c2cc(C(=O)NCCC(C)(C)C(=O)O)c(Cl)n2CC2CCCCC2)cc1C(F)(F)F [Example 22, 4-(5-(4-(N-(tert-Butyl)sulfamoyl)-3-(trifluoromethyl)phenyl)-2-chloro-1-(cyclohexylmethyl)-1H-pyrrole-3-carboxamido)-2,2-dimethylbutanoic acid] | 398 nM | 7.5 | 7.6 | – | – | –
32 | Cc1c(C(=O)NCC(C)(C)c2noc(=O)[nH]2)cc(-c2cc(C(C)(C)C)cc(C3(C)CC3)c2)n1CC1CCCCC1 [17/162] | 794 nM | 7.5 | 7.7 | – | – | –
33 | Cc1c(C(=O)NCC(=O)O)cc(-c2cc(C(C)(C)C)cc(C(C)(C)C)c2)n1CC1CCCCC1 [1/57] | 2510 nM | 5.8 | 5.8 | – | – | –
34 | Cc1c(C(=O)NCC(C)(C)C(N)=O)cc(-c2cc(C(C)(C)C)cc(C(C)(C)C)c2)n1CC1CCCCC1 [1/3] | – | – | – | 398 nM | 6.4/7.6/7.5 | 6.4/7.6/7.5
35 | Cc1c(S(=O)(=O)NC(C)(C)C)ccc(-c2cc(C(=O)NCC3(O)CCS(=O)(=O)CC3)c(C)n2CC2CCCCC2)c1Cl [17/290] | 631 nM | 7.6 | 7.6 | – | – | –
36 | CC(C)(C)NS(=O)(=O)c1ccc(-c2cc(C(=O)NC3CCOCC3)cn2CC2CCCCC2)cc1C(C)(C)C [17/116] | – | 7.3 | 7.3 | 631 nM | – | –
37 | Cc1c(C(=O)N2CC(O)C2)cc(-c2cc(C(C)(C)C)cc(C(C)(C)C)c2)n1CC1CCCCC1 [1/7] | 501 nM | 6.8 | 6.8 | – | – | –
38 | Cc1c(C(=O)NCC(C)(C)O)cc(-c2cc(OC(F)(F)F)cc(C(=O)NC(C)(C)C)c2)n1CC1CCCCC1 [17/349] | 631 nM | 6.8 | 6.8 | – | – | –
39 | Cc1c(C(=O)NCCC(C)(C)C(=O)O)cc(-c2cc(C(C)(C)C)cc(C(F)(F)F)c2)n1CC1CCCCC1 [17/305] | – | – | – | 2000 nM | 5.7/6.8/6.7 | 5.7/6.8/6.7
40 | Cc1c(C(=O)NC2CCOCC2)cc(-c2cc(Cl)c(S(N)(=O)=O)c(C(F)(F)F)c2)n1CC1CCCCC1 [19/1] | 501 nM | 6.8 | 6.8 | – | – | –
41 | Cc1c(C(=O)NC2CCOCC2)cc(-c2ccc(S(=O)(=O)NC(C)(C)C)c(C(F)(F)F)c2)n1CC1CCCC1 [17/214] | 251 nM | 7.5 | 7.5 | – | – | –
